Tests used:
Toll-like receptor 8 [1] = molecular target: T1, Toll-like receptor 8 (Homo sapiens, UniProt Q9NR97); test: biochemical
T1 sequence (Q9NR97 whole entry): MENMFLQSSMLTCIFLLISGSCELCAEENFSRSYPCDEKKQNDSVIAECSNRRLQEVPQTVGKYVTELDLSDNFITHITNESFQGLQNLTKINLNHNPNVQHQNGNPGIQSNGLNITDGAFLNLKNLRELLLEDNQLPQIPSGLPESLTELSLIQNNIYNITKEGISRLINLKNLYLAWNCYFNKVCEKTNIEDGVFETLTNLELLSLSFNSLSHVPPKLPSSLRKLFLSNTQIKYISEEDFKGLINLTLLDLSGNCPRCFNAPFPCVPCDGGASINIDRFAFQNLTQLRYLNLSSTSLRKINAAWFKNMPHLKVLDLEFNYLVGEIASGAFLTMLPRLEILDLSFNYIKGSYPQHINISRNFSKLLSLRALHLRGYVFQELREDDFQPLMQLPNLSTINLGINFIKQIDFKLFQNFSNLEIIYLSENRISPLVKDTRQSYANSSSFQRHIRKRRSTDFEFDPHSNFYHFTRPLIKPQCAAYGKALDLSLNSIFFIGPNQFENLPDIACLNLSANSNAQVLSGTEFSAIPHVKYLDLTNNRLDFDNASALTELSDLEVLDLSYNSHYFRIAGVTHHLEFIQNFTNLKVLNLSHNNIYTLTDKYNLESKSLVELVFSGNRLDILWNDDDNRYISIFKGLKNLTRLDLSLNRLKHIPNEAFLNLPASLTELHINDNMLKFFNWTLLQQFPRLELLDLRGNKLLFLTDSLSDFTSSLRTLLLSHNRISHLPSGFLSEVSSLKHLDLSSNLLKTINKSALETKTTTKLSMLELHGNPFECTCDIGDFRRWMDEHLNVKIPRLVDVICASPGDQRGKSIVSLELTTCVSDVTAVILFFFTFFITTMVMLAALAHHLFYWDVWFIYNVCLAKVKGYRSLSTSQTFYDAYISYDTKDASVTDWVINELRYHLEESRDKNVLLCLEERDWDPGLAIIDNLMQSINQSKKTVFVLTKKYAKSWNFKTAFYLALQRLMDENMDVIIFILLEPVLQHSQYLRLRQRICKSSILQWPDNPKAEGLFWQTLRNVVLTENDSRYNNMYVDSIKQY

Toll-like receptor 7 = molecular target: T2, Toll-like receptor 7 (Homo sapiens, UniProt Q9NYK1); test: Antagonist activity at TLR7 in human PBMC assessed as inhibition of DOTAP-ssRNA40 induced IFNalpha production preincubated for 30 mins followed by ssRNA40 addition measured after 20 hrs by alphaLISA; format: cell-based
T2 sequence (Q9NYK1 whole entry): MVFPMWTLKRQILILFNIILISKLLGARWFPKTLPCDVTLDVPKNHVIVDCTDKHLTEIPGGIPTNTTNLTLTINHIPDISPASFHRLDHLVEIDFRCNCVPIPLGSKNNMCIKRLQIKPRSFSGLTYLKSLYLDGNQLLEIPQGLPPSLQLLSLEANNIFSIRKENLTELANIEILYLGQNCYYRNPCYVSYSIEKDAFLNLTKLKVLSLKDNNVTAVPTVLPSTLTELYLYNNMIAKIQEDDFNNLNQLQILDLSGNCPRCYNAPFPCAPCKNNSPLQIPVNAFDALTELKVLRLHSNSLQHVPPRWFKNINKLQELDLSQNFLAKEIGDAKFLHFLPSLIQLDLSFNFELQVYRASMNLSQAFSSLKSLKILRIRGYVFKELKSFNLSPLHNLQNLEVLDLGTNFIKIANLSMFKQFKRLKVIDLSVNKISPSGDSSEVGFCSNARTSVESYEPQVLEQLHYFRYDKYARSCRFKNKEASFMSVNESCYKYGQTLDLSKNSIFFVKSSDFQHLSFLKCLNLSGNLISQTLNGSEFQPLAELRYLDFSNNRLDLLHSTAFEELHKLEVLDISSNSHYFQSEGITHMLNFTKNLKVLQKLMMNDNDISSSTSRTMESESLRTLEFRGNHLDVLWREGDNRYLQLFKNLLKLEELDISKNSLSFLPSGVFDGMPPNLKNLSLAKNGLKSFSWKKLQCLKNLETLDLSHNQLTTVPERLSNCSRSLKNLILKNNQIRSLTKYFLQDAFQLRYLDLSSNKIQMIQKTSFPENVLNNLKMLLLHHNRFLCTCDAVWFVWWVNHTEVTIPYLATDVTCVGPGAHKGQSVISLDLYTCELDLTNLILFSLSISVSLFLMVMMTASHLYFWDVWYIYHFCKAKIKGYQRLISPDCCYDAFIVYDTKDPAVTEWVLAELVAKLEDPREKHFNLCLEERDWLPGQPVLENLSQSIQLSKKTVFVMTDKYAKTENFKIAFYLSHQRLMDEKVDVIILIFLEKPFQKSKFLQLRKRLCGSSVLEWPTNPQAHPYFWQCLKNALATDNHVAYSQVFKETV

Toll-like receptor 9 = molecular target: T3, Toll-like receptor 9 (Homo sapiens, UniProt Q9NR96); test: Antagonist activity at TLR9 in human PBMC assessed as inhibition of ODN2216-induced IFNalpha production preincubated for 30 mins followed by ODN2216 addition and measured after 20 hrs by alphaLISA; format: cell-based
T3 sequence (Q9NR96 whole entry): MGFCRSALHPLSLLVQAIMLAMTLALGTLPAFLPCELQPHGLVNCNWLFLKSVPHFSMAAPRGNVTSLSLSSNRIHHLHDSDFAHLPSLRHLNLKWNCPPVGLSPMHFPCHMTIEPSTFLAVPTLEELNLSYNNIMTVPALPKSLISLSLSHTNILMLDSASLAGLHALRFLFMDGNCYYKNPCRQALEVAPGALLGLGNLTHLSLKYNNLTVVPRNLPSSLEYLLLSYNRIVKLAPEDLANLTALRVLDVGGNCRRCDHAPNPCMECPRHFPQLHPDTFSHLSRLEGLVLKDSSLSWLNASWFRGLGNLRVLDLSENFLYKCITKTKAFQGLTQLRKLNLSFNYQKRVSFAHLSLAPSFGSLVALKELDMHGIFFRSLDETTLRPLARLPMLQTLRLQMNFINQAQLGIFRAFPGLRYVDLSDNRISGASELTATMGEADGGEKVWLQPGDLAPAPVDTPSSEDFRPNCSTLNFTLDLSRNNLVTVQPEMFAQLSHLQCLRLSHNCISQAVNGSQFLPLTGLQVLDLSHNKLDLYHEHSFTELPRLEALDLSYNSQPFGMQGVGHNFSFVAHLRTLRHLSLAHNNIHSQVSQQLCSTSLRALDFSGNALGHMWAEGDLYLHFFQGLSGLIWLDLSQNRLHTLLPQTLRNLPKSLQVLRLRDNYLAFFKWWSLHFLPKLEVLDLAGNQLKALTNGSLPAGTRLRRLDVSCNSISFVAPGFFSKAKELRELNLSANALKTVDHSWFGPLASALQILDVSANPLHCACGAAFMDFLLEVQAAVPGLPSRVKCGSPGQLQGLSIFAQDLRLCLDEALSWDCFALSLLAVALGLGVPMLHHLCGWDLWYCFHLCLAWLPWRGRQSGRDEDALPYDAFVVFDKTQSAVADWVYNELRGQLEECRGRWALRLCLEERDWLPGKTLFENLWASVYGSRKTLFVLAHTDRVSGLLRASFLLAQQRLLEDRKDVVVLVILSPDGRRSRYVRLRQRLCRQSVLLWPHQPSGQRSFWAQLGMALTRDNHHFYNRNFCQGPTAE

Toll-like receptor 4 = Toll-like receptor 4 (Homo sapiens, UniProt O00206); test: Antagonist activity at TLR4 in human PBMC assessed as inhibition of LPS-induced TNFalpha production preincubated for 30 mins followed by LPS addition and measured after 20 hrs by HTRF assay; format: cell-based
Toll-like receptor 4, sequence (O00206 whole entry): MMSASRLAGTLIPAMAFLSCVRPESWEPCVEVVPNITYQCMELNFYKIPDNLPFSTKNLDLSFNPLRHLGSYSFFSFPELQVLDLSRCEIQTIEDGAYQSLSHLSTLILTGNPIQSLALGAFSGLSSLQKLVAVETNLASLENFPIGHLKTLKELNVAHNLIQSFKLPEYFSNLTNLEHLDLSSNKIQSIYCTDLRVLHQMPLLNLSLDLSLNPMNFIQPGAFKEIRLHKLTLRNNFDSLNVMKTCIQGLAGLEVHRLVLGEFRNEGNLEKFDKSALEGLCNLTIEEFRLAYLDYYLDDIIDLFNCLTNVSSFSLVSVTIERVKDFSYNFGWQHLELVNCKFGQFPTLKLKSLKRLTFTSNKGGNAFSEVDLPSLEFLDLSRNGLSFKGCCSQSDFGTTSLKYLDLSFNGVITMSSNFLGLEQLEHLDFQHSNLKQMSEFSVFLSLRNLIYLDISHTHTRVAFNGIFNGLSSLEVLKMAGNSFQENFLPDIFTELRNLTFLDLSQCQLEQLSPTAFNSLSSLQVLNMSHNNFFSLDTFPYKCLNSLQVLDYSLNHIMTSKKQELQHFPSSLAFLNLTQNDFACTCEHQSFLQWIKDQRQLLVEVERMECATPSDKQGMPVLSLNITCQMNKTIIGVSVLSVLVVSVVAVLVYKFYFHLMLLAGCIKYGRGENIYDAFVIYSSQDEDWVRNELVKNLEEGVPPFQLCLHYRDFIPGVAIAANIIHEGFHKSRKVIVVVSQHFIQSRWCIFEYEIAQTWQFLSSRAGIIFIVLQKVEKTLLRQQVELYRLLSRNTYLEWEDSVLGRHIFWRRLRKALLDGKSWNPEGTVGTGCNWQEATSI

Cytochrome P450 3A4 = Cytochrome P450 3A4 (Homo sapiens, UniProt P08684); test: Inhibition of CYP3A4 (unknown origin); format: ADME
Cytochrome P450 3A4, sequence (P08684 whole entry): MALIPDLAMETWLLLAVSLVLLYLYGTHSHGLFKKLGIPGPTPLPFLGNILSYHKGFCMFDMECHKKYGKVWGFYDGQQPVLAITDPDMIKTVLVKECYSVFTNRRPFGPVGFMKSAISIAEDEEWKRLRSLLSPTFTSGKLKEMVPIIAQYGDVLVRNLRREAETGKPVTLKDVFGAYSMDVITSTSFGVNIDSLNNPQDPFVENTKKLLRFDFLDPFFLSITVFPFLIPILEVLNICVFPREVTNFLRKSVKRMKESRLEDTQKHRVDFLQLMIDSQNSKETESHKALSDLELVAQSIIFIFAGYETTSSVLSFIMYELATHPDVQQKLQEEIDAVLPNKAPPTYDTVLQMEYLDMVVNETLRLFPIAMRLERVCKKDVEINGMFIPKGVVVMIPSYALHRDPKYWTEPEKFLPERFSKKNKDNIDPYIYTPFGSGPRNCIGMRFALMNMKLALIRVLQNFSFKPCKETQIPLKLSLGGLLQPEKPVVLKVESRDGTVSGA

Toll-like receptor 8 [2] = molecular target: T1, Toll-like receptor 8; test: biochemical; remark: listed apart in the source
Description: Binding affinity to human TLR8 extracellular domain (27 to 827 residues) expressed in Drosophila S2 cells by fluorescence polarization assay

| Structure (SMILES) | IC50 (Toll-like receptor 9) | also measured |
| --- | --- | --- |
| Cc1cc(-c2ccnc3[nH]ncc23)cnc1OCC12CCC(N)(CC1)CC2 |  | IC50 (Toll-like receptor 8 [1]): 0.068 µM |
| Cc1cc(-c2ccc(=O)n(C)c2)cc2cnc(N3CCN(C(C)C)CC3)nc12 | > 10 µM | IC50 (Toll-like receptor 7): > 10 µM |
| Cc1cc(-c2ccc(=O)n(C)c2)cc2cn(C3CCNCC3)nc12 | 2 µM |  |
| Cc1cc(-c2ccc(=O)n(C)c2C)cc2cn(C3CCNCC3)nc12 | > 10 µM | IC50 (Toll-like receptor 4): > 10 µM; IC50 (Cytochrome P450 3A4): > 20 µM |
| Cc1cc(=O)n(C)cc1-c1cc(C)c2nn(C3CCNCC3)cc2c1 | 7.2 µM | IC50 (Toll-like receptor 4): > 4.2 µM |
| Cc1cc(-c2cc(C)c3nn(C4CCNCC4)cc3c2)cn(C)c1=O | 0.2 µM |  |
| CC[N+]1=C(/C=C/C=C/C=C2/N(CCCCCC(=O)NC34CCC(COc5ncc(-c6ccnc7[nH]ncc67)cc5C)(CC3)CC4)c3ccc(S(=O)(=O)O)cc3C2(C)C)C(C)(C)c2cc(S(=O)(=O)O)ccc21 |  | Kd (Toll-like receptor 8 [2]): 0.065 µM |
| Cn1cc(-c2ccc3nc(N4CCN(C5CCC5)CC4)ncc3c2)ccc1=O | 2.2 µM |  |

Reference: ChEMBL document CHEMBL4619804, “Target-Based Identification and Optimization of 5-Indazol-5-yl Pyridones as Toll-like Receptor 7 and 8 Antagonists Using a Biochemical TLR8 Antagonist Competition Assay” (J Med Chem, 2020)
